The results in this text go back to patent publication US12227782B2, “Method for producing protein” (priority 2018, dated 2025).

The subject of the experiment is Trichoderma reesei X3AB1 strain. Description: Test 1/Test 2: amount of protein produced (Bradford method) in culture supernatant. The experiment is classed as cell-based. Here is the method: Trichoderma reesei X3AB1 strain (J. Ind. Microbiol. Biotechnol., 2012, 174: 1-9; hereinafter, referred to as X3AB1 strain) was cultured in a cellulose-containing culture medium to produce a protein containing a cellulase. As preculture, 50 mL of a culture medium was added to a 500 mL flask, spores of X3AB1 strain were inoculated at 1×10^5 cells/mL, and shaking culture was performed at 220 rpm (PRXYg-98R from PRECI CO., LTD.) at 28° C. The culture medium composition was as follows: 1% glucose, 0.14% (NH4)2SO4, 0.2% KH2PO4, 0.03% CaCl2·2H2O, 0.03% MgSO4·7H2O, 0.1% Bacto Peptone (BD Difco), 0.05% Bacto Yeast extract (BD Difco), 0.1% TWEEN® 80 (polysorbate 80), 0.1% Trace element and 50 mM tartrate buffer (pH 4.0). The composition of the Trace element was as follows: 6 mg of H3BO3, 26 mg of (NH4)6Mo7O24·4H2O, 100 mg of FeCl3·6H2O, 40 mg of CuSO4·5H2O, 8 mg of MnCl2·4H2O and 200 mg of ZnCl2 which were diluted to 100 mL with distilled water.
Main culture was performed after 2 days of preculture. […]
The culture solutions obtained in Comparative Example 1 and Examples 1 and 2 were centrifuged. […] The concentration of protein in the supernatant was measured by the Bradford method. The protein concentration of the supernatant was calculated on the basis of a calibration curve with bovine γ-globulin as standard protein using Quick Start Protein Assay (BioRad) based on the Bradford method, and the protein concentration was defined as an amount of protein produced. […]
For the culture solutions obtained from Comparative Examples 2 and 3 and Examples 3 to 6, the amount of protein produced was measured in the same manner as in Test 1. […]

Take `N[C@@H]1O[C@H](CO)[C@@H](O)[C@H](O)[C@H]1O` [β-D-glucopyranosylamine]: the “increase of maximum amount of protein produced as compared to Comparative Example 1” value runs as follows: (Example 1: 0.5% added to initial culture medium of main culture, maximum on day 3 of culture, 10% powder cellulose medium) at least 20%; (Example 2: 8% aqueous solution fed 0.6 g/L initial culture medium/hr at 15-63 hr (total 0.2%), maximum on day 4 of culture) at least 20%. Besides, the “protein productivity as the amount added in the culture increased” value (Examples 3 to 6: fed together with glucose (38% glucose/2% or 35% glucose/5% aqueous solution) versus 40% glucose feed (Comparative Examples 2 and 3)) is “tended to be improved”.
